According to ChEMBL document CHEMBL4706515, “Discovery of new [1,2,4] Triazolo[1,5-a]Pyrimidine derivatives that Kill gastric cancer cells via the mitochondria pathway” (Eur J Med Chem, 2020):
The source made the active and inactive calls. The rule behind the calls is not given here.

Assays:
MGC-803 [1] = assay: Induction of apoptosis in human MGC-803 cells assessed as late apoptotic cells at 1.25 uM measure after 24 hrs by Annexin-PI staining based Flowcytometry method (reference value: 7.06%); type: functional
SGC-7901 [2] = assay: Induction of apoptosis in human SGC-7901 cells assessed as late apoptotic cells at 0.625 uM measure after 24 hrs by Annexin-PI staining based Flowcytometry method (reference value: 1.29%); type: functional
SGC-7901 [3] = assay: Inhibition of cell proliferation in human SGC-7901 cells at 2.5 uM measured after 72 hrs by SRB assay; type: functional, cell-based
MGC-803 [4] = assay: Induction of apoptosis in human MGC-803 assessed by cleaved PARP levels incubated for 1 hr with Z-LEHD-FMK followed by compound addition measured by western blot assay; type: functional, cell-based
MGC-803 [5] = assay: Induction of apoptosis in human MGC-803 cells assessed as viable cells at 1.25 uM measure after 24 hrs by Annexin-PI staining based Flowcytometry method (reference value: 80%); type: functional; conditions: read-out: Activity
SGC-7901 [6] = assay: Inhibition of cell proliferation in human SGC-7901 cells at 10 uM measured after 72 hrs by SRB assay; type: functional, cell-based
MGC-803 [7] = assay: Induction of apoptosis in human MGC-803 cells assessed as increase in ROS production at 10 uM measured after 24 hrs by DCHF-DA staining based Flowcytometry method; type: functional, cell-based
MGC-803 [8] = assay: Induction of apoptosis in human MGC-803 cells assessed as late apoptotic cells at 5 uM measure after 24 hrs by Annexin-PI staining based Flowcytometry method (reference value: 7.06%); type: functional
GES1 = assay: Cytotoxicity against human GES1 cells assessed as inhibition of cell growth at measured after 72 hrs by SRB assay; type: cell-based; conditions: ges1, 72 h
MGC-803 [9] = assay: Induction of apoptosis in human MGC-803 cells assessed as viable cells at 10 uM measure after 24 hrs by Annexin-PI staining based Flowcytometry method (reference value: 80%); type: functional; conditions: read-out: Activity
SGC-7901 [10] = assay: Antiproliferative activity against human SGC-7901 cells assessed as inhibition of cell growth at measured after 72 hrs by SRB assay; type: functional
SGC-7901 [11] = assay: Induction of apoptosis in human SGC-7901 cells assessed as viable cells at 0.625 uM measure after 24 hrs by Annexin-PI staining based Flowcytometry method (reference value: 94.9%); type: functional; conditions: read-out: Activity
SGC-7901 [12] = assay: Induction of apoptosis in human SGC-7901 cells assessed as viable cells at 5 uM measure after 24 hrs by Annexin-PI staining based Flowcytometry method (reference value: 94.9%); type: functional; conditions: read-out: Activity
MKN-45 = assay: Antiproliferative activity against human MKN-45 cells assessed as inhibition of cell growth at measured after 72 hrs by SRB assay; type: functional
HGC-27 = assay: Antiproliferative activity against human HGC-27 cells assessed as inhibition of cell growth at measured after 72 hrs by SRB assay; type: functional
MGC-803 [13] = assay: Induction of mitochondrial membrane potential loss in human MGC-803 cells at 5 uM measured after 24 hrs by JC-1 staining based flow cytometry method (reference value: 0.344%); conditions: Mitochondria
SGC-7901 [14] = assay: Inhibition of cell proliferation in human SGC-7901 cells at 5 uM measured after 72 hrs by SRB assay; type: functional, cell-based
MGC-803 [15] = assay: Induction of apoptosis in human MGC-803 cells assessed as accumulation of cleaved PARP protein at 0.625 to 10 uM measured after 24 hrs by western blot assay; type: functional, cell-based; conditions: dose 0.625-10 µM
MGC-803 [16] = assay: Induction of morphological changes in human MGC-803 cells assessed as cell shrinkage at 10 uM incubated for 1 hrs by bright field microscopic analysis; type: functional, cell-based
SGC-7901 [17] = assay: Induction of apoptosis in human SGC-7901 cells assessed as early apoptotic cells at 10 uM measure after 24 hrs by Annexin-PI staining based Flowcytometry method (reference value: 2.68%); type: functional
MGC-803 [18] = assay: Induction of apoptosis in human MGC-803 cells assessed as early apoptotic cells at 0.625 uM measure after 24 hrs by Annexin-PI staining based Flowcytometry method (reference value: 9.8%); type: functional
MGC-803 [19] = assay: Induction of apoptosis in human MGC-803 cells assessed as late apoptotic cells at 0.625 uM measure after 24 hrs by Annexin-PI staining based Flowcytometry method (reference value: 7.06%); type: functional
MGC-803 [20] = assay: Induction of apoptosis in human MGC-803 cells assessed as viable cells at 0.625 uM measure after 24 hrs by Annexin-PI staining based Flowcytometry method (reference value: 80%); type: functional; conditions: read-out: Activity
MGC-803 [21] = assay: Cytotoxicity against human MGC-803 cells assessed as inhibition of cell viability incubated for 1 hr with Z-VAD-FMK followed by addition of compound; type: functional, cell-based
MGC-803 [22] = assay: Induction of apoptosis in human MGC-803 cells assessed as early apoptotic cells at 1.25 uM measure after 24 hrs by Annexin-PI staining based Flowcytometry method (reference value: 9.8%); type: functional
MGC-803 [23] = assay: Induction of apoptosis in human MGC-803 cells assessed as increase in accumulation of LC3B-2 preincubated with Chloroquine measured after 24 hrs by western blot assay; type: functional, cell-based
SGC-7901 [24] = assay: Induction of apoptosis in human SGC-7901 cells assessed as late apoptotic cells at 5 uM measure after 24 hrs by Annexin-PI staining based Flowcytometry method (reference value: 1.29%); type: functional
MGC-803 [25] = assay: Induction of apoptosis in human MGC-803 cells assessed as necrotic cells at 10 uM measure after 24 hrs by Annexin-PI staining based Flowcytometry method (reference value: 3.13%); type: functional
MGC-803 [26] = assay: Induction of apoptosis in human MGC-803 cells assessed as accumulation of cleaved caspase 9 protein at 0.625 to 10 uM measured after 24 hrs by western blot assay; type: functional, cell-based; conditions: dose 0.625-10 µM
MGC-803 [27] = assay: Induction of apoptosis in human MGC-803 cells assessed as necrotic cells at 1.25 uM measure after 24 hrs by Annexin-PI staining based Flowcytometry method (reference value: 3.13%); type: functional
MGC-803 [28] = assay: Induction of apoptosis in human MGC-803 cells assessed as late apoptotic cells at 10 uM measure after 24 hrs by Annexin-PI staining based Flowcytometry method (reference value: 7.06%); type: functional
SGC-7901 [29] = assay: Induction of apoptosis in human SGC-7901 cells assessed as late apoptotic cells at 1.25 uM measure after 24 hrs by Annexin-PI staining based Flowcytometry method (reference value: 1.29%); type: functional
MGC-803 [30] = assay: Induction of apoptosis in human MGC-803 cells assessed as early apoptotic cells at 5 uM measure after 24 hrs by Annexin-PI staining based Flowcytometry method (reference value: 9.8%); type: functional
MGC-803 [31] = assay: Antiproliferative activity against human MGC-803 cells assessed as inhibition of cell growth at 10 uM measured after 72 hrs by SRB assay relative to control; type: functional
MGC-803 [32] = assay: Induction of apoptosis in human MGC-803 cells assessed as increase in accumulation of LC3B-2 measured after 24 hrs by western blot assay; type: functional, cell-based
[33] = Selectivity index, ratio of GI50 for human MGC803 to GI50 for human GES-1 cells
MGC-803 [34] = assay: Induction of apoptosis in human MGC-803 cells assessed as increase in ROS production preincubated for 1 hr with NAC followed by compound addition at 5 uM measured after 24 hrs by DCHF-DA staining based Flowcytometry method; type: functional, cell-based

In the case of Cc1cc(Nc2ccc(C(=O)/C=C/c3cccc(Br)n3)cc2)n2nc(SCc3nc4ccccc4[nH]3)nc2n1, the Activity (MGC-803 [1]) is reported as 1.95%, the Activity (SGC-7901 [2]) is reported as 1.55% and the inhibition (SGC-7901 [3]) is reported as “inactive”. For the same compound, the Activity (MGC-803 [4]) was “inactive”, the viability at 1.25 µM (MGC-803 [5]) was 88.6% and the inhibition (SGC-7901 [6]) was “Active”. The Activity (MGC-803 [7]) was “Active”, the Activity (MGC-803 [8]) was 15.4% and the Activity (GES1) was “Non-Toxic”. For the same compound, the viability at 10 µM (MGC-803 [9]) was 45.3%, the GI50 (SGC-7901 [10]) was 640 nM and the viability at 0.625 µM (SGC-7901 [11]) was 94.2%. It also gave a viability at 5 µM (SGC-7901 [12]) of 53%, a GI50 (MKN-45) of 640 nM and a GI50 (HGC-27) of 640 nM. The Activity (MGC-803 [13]) was 3.13%, the inhibition (SGC-7901 [14]) was “Active” and the Activity (MGC-803 [15]) was “Active”. For the same compound, the Activity (MGC-803 [16]) was “Active”, the Activity (SGC-7901 [17]) was 8.54% and the Activity (MGC-803 [18]) was 4.92%. For the same compound, the Activity (MGC-803 [19]) was 1.81%, the viability at 0.625 µM (MGC-803 [20]) was 91.6% and the inhibition (MGC-803 [21]) was “inactive”. The Activity (MGC-803 [22]) was 7.21%, the Activity (MGC-803 [23]) was “Active” and the Activity (SGC-7901 [24]) was 29.8%. For the same compound, the Activity (MGC-803 [25]) was 8.84%, the Activity (MGC-803 [26]) was “Active” and the Activity (MGC-803 [27]) was 2.25%. It also gave an Activity (MGC-803 [28]) of 36.4%, an Activity (SGC-7901 [29]) of 1.37% and an Activity (MGC-803 [30]) of 6.25%. The inhibition at 10 µM (MGC-803 [31]) was 94.4%, the Activity (MGC-803 [32]) was “Active” and the RatioGI50 [33] was 6.9. The Activity (MGC-803 [34]) was “inactive”.
